Laboratory results reported in PubChem BioAssay AID248 (DTP/NCI, 2004).
Toxic doses and inconclusive results are not listed. Cut-off read from the data, not from the text of the source: active = T/C of 150% or more; inactive = T/C below 125%.

Test system: L1210 leukemia ip in BDF1 mice, survival T/C
Assay: NCI In Vivo Anticancer Drug Screen. Data for tumor model L1210 Leukemia (intraperitoneal) in B6D2F1 (BDF1) mice
Conditions: endpoint: mean survival time, higher = longer survival
Method in brief: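 In this screen, tumor-bearing mice given compound are compared to those given vehicle, and their survival values are reported as a treated-to-control quotient.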

[1] = dose: 100.0 mg/kg/injection, schedule: Q01DX001 (ip), vehicle: carboxymethylcellulose (CMC)
[2] = dose: 100.0 mg/kg/injection, schedule: Q04DX003 (ip), vehicle: Klucel (hydroxypropylcellulose) (HPC)
[3] = dose: 200.0 mg/kg/injection, schedule: Q01DX001 (ip), vehicle: carboxymethylcellulose (CMC)
[4] = dose: 200.0 mg/kg/injection, schedule: Q04DX003 (ip), vehicle: Klucel (hydroxypropylcellulose) (HPC)
[5] = dose: 400.0 mg/kg/injection, schedule: Q01DX001 (ip), vehicle: carboxymethylcellulose (CMC)
[6] = dose: 400.0 mg/kg/injection, schedule: Q04DX003 (ip), vehicle: Klucel (hydroxypropylcellulose) (HPC)
[7] = dose: 100.0 mg/kg/injection, schedule: Q01DX009 (ip), vehicle: saline with Tween-80
[8] = dose: 100.0 mg/kg/injection, schedule: Q04DX003 (ip), vehicle: saline
[9] = dose: 200.0 mg/kg/injection, schedule: Q04DX003 (ip), vehicle: saline
[10] = dose: 400.0 mg/kg/injection, schedule: Q04DX003 (ip), vehicle: saline
[11] = dose: 100.0 mg/kg/injection, schedule: Q04DX002 (ip), vehicle: Klucel (hydroxypropylcellulose) (HPC)
[12] = dose: 100.0 mg/kg/injection, schedule: Q01DX001 (ip), vehicle: saline
[13] = dose: 200.0 mg/kg/injection, schedule: Q01DX001 (ip), vehicle: saline
[14] = dose: 400.0 mg/kg/injection, schedule: Q01DX001 (ip), vehicle: saline

Measured: T/C

CN(C)/N=N\c1nc[nH]c1C(=O)NC1CCCCC1
inactive: dose: 10.0 mg/kg/injection, schedule: Q01DX001 (ip), vehicle: saline with Tween-80 100 % of control | dose: 20.0 mg/kg/injection, schedule: Q01DX001 (ip), vehicle: saline with Tween-80 94 % of control | dose: 40.0 mg/kg/injection, schedule: Q01DX001 (ip), vehicle: saline with Tween-80 96 % of control | dose: 75.0 mg/kg/injection, schedule: Q01DX009 (ip), vehicle: saline with Tween-80 98 % of control | dose: 150.0 mg/kg/injection, schedule: Q01DX009 (ip), vehicle: saline with Tween-80 109 % of control | dose: 300.0 mg/kg/injection, schedule: Q01DX009 (ip), vehicle: saline with Tween-80 101 % of control

CCN(CC)C(=O)Nc1ccc([N+](=O)[O-])cc1
inactive: [1] 97 % of control | [2] 109 % of control | [3] 101 % of control | [4] 96 % of control | [5] 97 % of control | [6] 107 % of control

Cl/C=C(\Cl)CCl
inactive: [7] 100 % of control | [8] 97 % of control | [9] 102 % of control | [10] 105 % of control

CCOC(=O)C1C(C)NC(=S)NC1c1ccccc1 (stereo not drawn)
inactive: [11] 90 % of control | dose: 200.0 mg/kg/injection, schedule: Q04DX002 (ip), vehicle: Klucel (hydroxypropylcellulose) (HPC) 93 % of control | dose: 400.0 mg/kg/injection, schedule: Q04DX002 (ip), vehicle: Klucel (hydroxypropylcellulose) (HPC) 93 % of control

Cc1ccc(C(=O)Nc2c(N)ncnc2N)cc1[N+](=O)[O-]
inactive: dose: 75.0 mg/kg/injection, schedule: Q01DX001 (ip), vehicle: saline with Tween-80 101 % of control | dose: 150.0 mg/kg/injection, schedule: Q01DX001 (ip), vehicle: saline with Tween-80 98 % of control | dose: 300.0 mg/kg/injection, schedule: Q01DX001 (ip), vehicle: saline with Tween-80 102 % of control

Cc1cc(C)c2c(c1)CC2NC(=O)c1ccccc1 (stereo not drawn)
inactive: dose: 25.0 mg/kg/injection, schedule: Q04DX002 (ip), vehicle: Klucel (hydroxypropylcellulose) (HPC) 100 % of control | dose: 50.0 mg/kg/injection, schedule: Q04DX002 (ip), vehicle: Klucel (hydroxypropylcellulose) (HPC) 106 % of control | [11] 95 % of control

C=COCCOC
inactive: [7] 104 % of control | dose: 200.0 mg/kg/injection, schedule: Q01DX009 (ip), vehicle: saline with Tween-80 101 % of control | dose: 400.0 mg/kg/injection, schedule: Q01DX009 (ip), vehicle: saline with Tween-80 107 % of control

CCCn1c(O)c(C(=O)CC)sc1=S
inactive: dose: 50.0 mg/kg/injection, schedule: Q01DX009 (ip), vehicle: saline with Tween-80 95 % of control | [7] 88 % of control

O=C1CCC(=O)N1c1ccc(Cl)cc1
inactive: dose: 12.5 mg/kg/injection, schedule: Q01DX009 (ip), vehicle: Klucel (hydroxypropylcellulose) (HPC) 107 % of control | dose: 25.0 mg/kg/injection, schedule: Q01DX009 (ip), vehicle: Klucel (hydroxypropylcellulose) (HPC) 98 % of control | dose: 50.0 mg/kg/injection, schedule: Q01DX009 (ip), vehicle: Klucel (hydroxypropylcellulose) (HPC) 101 % of control

CCC(/C=N/NC(N)=O)CC
inactive: [2] 101 % of control | [4] 93 % of control | [6] 96 % of control

C[N+](C)(CC(=O)Nc1ccc(Cl)c(Cl)c1)CC(=O)c1ccc(Cl)cc1
inactive: dose: 6.25 mg/kg/injection, schedule: Q01DX009 (ip), vehicle: saline 96 % of control | dose: 12.5 mg/kg/injection, schedule: Q01DX009 (ip), vehicle: saline 96 % of control | dose: 25.0 mg/kg/injection, schedule: Q01DX009 (ip), vehicle: saline 89 % of control | dose: 100.0 mg/kg/injection, schedule: Q04DX003 (ip), vehicle: saline with Tween-80 92 % of control

COc1ccc(C(=S)N2CCN(c3ccc(C)cc3)CC2)cc1
inactive: [12] 98 % of control | [13] 95 % of control | [14] 95 % of control

Nc1ccn(C2OC(CO)C(OP(=O)(O)O)C2O)c(=O)n1 (stereo not drawn)
inactive: dose: 40.0 mg/kg/injection, schedule: Q01DX001 (ip), vehicle: water 102 % of control | dose: 80.0 mg/kg/injection, schedule: Q01DX001 (ip), vehicle: water 97 % of control

CN1C2CCC1CC(OC(=O)C(CO)c1ccccc1)C2 (stereo not drawn)
inactive: dose: 31.25 mg/kg/injection, schedule: Q01DX Z (ip), vehicle: saline 100 % of control | dose: 62.5 mg/kg/injection, schedule: Q01DX Z (ip), vehicle: saline 102 % of control | dose: 125.0 mg/kg/injection, schedule: Q01DX Z (ip), vehicle: saline 98 % of control

CSCCC(N)C(=O)O (stereo not drawn)
inactive: dose: 40.0 mg/kg/injection, schedule: Q01DX009 (ip), vehicle: saline 96 % of control | dose: 80.0 mg/kg/injection, schedule: Q01DX009 (ip), vehicle: saline 107 % of control | [1] 92 % of control | [2] 104 % of control | dose: 160.0 mg/kg/injection, schedule: Q01DX009 (ip), vehicle: saline 102 % of control | [3] 95 % of control | [4] 98 % of control | dose: 320.0 mg/kg/injection, schedule: Q01DX009 (ip), vehicle: saline 98 % of control | [5] 103 % of control | [6] 102 % of control

O=C(CBr)c1cc(-c2ccc(Cl)c(Cl)c2)nc2c(Cl)cc(Cl)cc12
inactive: [12] 94 % of control | [13] 95 % of control | [14] 94 % of control

N#CCCC(CC#N)S(=O)(=O)O (stereo not drawn)
inactive: dose: 100.0 mg/kg/injection, schedule: Q01DX009 (ip), vehicle: saline 105 % of control | [8] 100 % of control | dose: 200.0 mg/kg/injection, schedule: Q01DX009 (ip), vehicle: saline 103 % of control | [9] 108 % of control | dose: 400.0 mg/kg/injection, schedule: Q01DX009 (ip), vehicle: saline 102 % of control | [10] 106 % of control

CCCCCOP(=O)(Cc1ccc(Cl)cc1)OCCCCC
inactive: [2] 87 % of control | [4] 90 % of control | [6] 100 % of control

Cc1ccc(C(CO)(CO)OC(CO)(CO)c2ccc(C)c(C)c2)cc1C
inactive: dose: 50.0 mg/kg/injection, schedule: Q01DX001 (ip), vehicle: saline 105 % of control | [12] 97 % of control | [13] 105 % of control | [14] 105 % of control

CCN(CC#CCOc1ccc(Br)cc1)c1ccccc1
inactive: dose: 100.0 mg/kg/injection, schedule: Q04DX002 (ip), vehicle: saline 105 % of control | dose: 200.0 mg/kg/injection, schedule: Q04DX002 (ip), vehicle: saline 101 % of control | dose: 400.0 mg/kg/injection, schedule: Q04DX002 (ip), vehicle: saline 99 % of control

C1CCC(NCCNC2CCCCC2)CC1
inactive: dose: 75.0 mg/kg/injection, schedule: Q01DX001 (ip), vehicle: saline 98 % of control
